{"source": "patent US10610522B2", "about": "“Methods for retreating irritable bowel syndrome (IBS)” (Salix Pharmaceuticals, Inc., priority 2014, dated 2020)", "test_system": "C. difficile infection (CDI)", "test": "Double-blind non-inferiority trial rifaximin 400 mg TID vs vancomycin 125 mg QID, 10 days, C. difficile infection", "type": "in vivo, human", "protocol": "Criteria for entry into the trial were: • Age >=18 years old; • Had acute diarrhea at screening defined as >=3 unformed stools in the last 24 hours and at least one sign of enteric infection (fever, nausea, lose of appetite, vomiting, severe abdominal pain/discomfort); and • a positive C. diff stool toxin assay Endpoint:\nThe primary efficacy endpoint of the study was defined as the proportion of subjects achieving clinical success. Specifically, clinical success was defined as the absence of severe abdominal pain at Test of Cure (TOC), absence of fever (<38° C.) at TOC, and <3 unformed stools for two consecutive days at TOC.\nClinical success was defined as the: Absence of severe abdominal pain at TOC, absence of fever (<38° C.) at TOC, and <3 unformed stools for two consecutive days at TOC. Test of cure defined as Day 14+/−1 day.\nRecurrence was defined to be a diarrhea and a positive C. diff stool toxin assay that occurred after initial clinical success.\nGlobal cure of diarrhea was defined as subjects who were cured of diarrhea at TOC without recurrence at follow up.\nSubjects who completed the study without achieving clinical success were censored at Day 14", "key": {"[1]": {"conditions": "Rifaximin N = 117, Vancomycin N = 115"}, "[2]": {"conditions": "Rifaximin vs Vancomycin, at TOC"}, "[3]": {"conditions": "Rifaximin vs Vancomycin, treatment period"}, "[4]": {"conditions": "adjusting for concomitant medication usage, Rifaximin N = 109, Vancomycin N = 112"}, "[5]": {"conditions": "adjusting for concomitant medication usage, Rifaximin N = 117, Vancomycin N = 115"}, "[6]": {"conditions": "adjusting for concomitant medication usage, Rifaximin vs Vancomycin"}, "[7]": {"conditions": "after initial clinical success, Rifaximin N = 67, Vancomycin N = 73"}, "[8]": {"conditions": "all subjects, Rifaximin N = 117, Vancomycin N = 115"}, "[9]": {"conditions": "at TOC, Rifaximin N = 108, Vancomycin N = 111"}, "[10]": {"conditions": "at TOC, Rifaximin N = 117, Vancomycin N = 115"}, "[11]": {"conditions": "cured at TOC without recurrence at follow up, Rifaximin N = 117, Vancomycin N = 115"}, "[12]": {"conditions": "subgroup Age <65, at TOC, Rifaximin N = 69, Vancomycin N = 62"}, "[13]": {"conditions": "subgroup Age >=65, at TOC, Rifaximin N = 39, Vancomycin N = 49"}, "[14]": {"conditions": "subgroup Female, at TOC, Rifaximin N = 68, Vancomycin N = 64"}, "[15]": {"conditions": "subgroup Male, at TOC, Rifaximin N = 40, Vancomycin N = 47"}}}
{"smiles": "CO[C@H]1/C=C/O[C@@]2(C)Oc3c(C)c(O)c4c(O)c(c5c(nc6cc(C)ccn65)c4c3C2=O)NC(=O)/C(C)=C\\C=C\\[C@H](C)[C@H](O)[C@@H](C)[C@@H](O)[C@@H](C)[C@H](OC(C)=O)[C@@H]1C", "note": "[Rifaximin, (2S,16Z,18E,20S,21S,22R,23R,24R,25S,26S,27S,28E)-5,6,21,23,25 Pentahydroxy-27-methoxy-2,4,11,16,20,22,24,26-octamethyl-2,7-(epoxypentadeca-(1,11,13)trienimino) benzofuro (4,5-e) pyrido(1,2-a) benzimidazole-1,15(2H)-dione,25-acetate]", "values": [{"measurement": "Continuing Illness No: % of subjects", "setting": "[1]", "value": 77, "unit": "%"}, {"measurement": "Continuing Illness No: number of subjects", "setting": "[1]", "value": 90}, {"measurement": "Continuing Illness Yes: % of subjects", "setting": "[1]", "value": 23, "unit": "%"}, {"measurement": "Continuing Illness Yes: number of subjects", "setting": "[1]", "value": 27}, {"measurement": "Global Cure of Diarrhea No: % of subjects", "setting": "[1]", "value": 29, "unit": "%"}, {"measurement": "Global Cure of Diarrhea No: number of subjects", "setting": "[1]", "value": 34}, {"measurement": "Recurrence Rate per Person-Year Exposure", "setting": "[1]", "value": 0.613}, {"measurement": "Continuing Illness: Treatment Difference", "setting": "Rifaximin vs Vancomycin", "value": "−9.2", "unit": "%"}, {"measurement": "Global Cure of Diarrhea: Treatment Difference", "setting": "Rifaximin vs Vancomycin", "value": "−3.0", "unit": "%"}, {"measurement": "Recurrence of CDI: Treatment Difference", "setting": "Rifaximin vs Vancomycin, after initial clinical success", "value": 4.7, "unit": "%"}, {"measurement": "Clinical Success: Treatment Difference", "setting": "[2]", "value": "−6.2", "unit": "%"}, {"measurement": "Diarrhea: Treatment Difference", "setting": "[2]", "value": "−1.5", "unit": "%"}, {"measurement": "Fever: Treatment Difference", "setting": "[2]", "value": "−7.5", "unit": "%"}, {"measurement": "Severe Abdominal Pain/Discomfort: Treatment Difference", "setting": "[2]", "value": "−11.5", "unit": "%"}, {"measurement": "Adjusted mean number of unformed stools-ANOVA: Treatment Difference (95% CI)", "setting": "[3]", "value": "0.46 (−0.08, 1.00)"}, {"measurement": "Overall treatment difference in number of unformed stools-Mixed Model: Treatment Difference (95% CI)", "setting": "[3]", "value": "0.32 (−0.08, 0.72)"}, {"measurement": "Diarrhea No: % of subjects", "setting": "[4]", "value": 65, "unit": "%"}, {"measurement": "Diarrhea No: number of subjects", "setting": "[4]", "value": 71}, {"measurement": "Diarrhea Yes: % of subjects", "setting": "[4]", "value": 35, "unit": "%"}, {"measurement": "Diarrhea Yes: number of subjects", "setting": "[4]", "value": 38}, {"measurement": "Clinical Success No: % of subjects", "setting": "[5]", "value": 50, "unit": "%"}, {"measurement": "Clinical Success No: number of subjects", "setting": "[5]", "value": 59}, {"measurement": "Clinical Success Yes: % of subjects", "setting": "[5]", "value": 50, "unit": "%"}, {"measurement": "Clinical Success Yes: number of subjects", "setting": "[5]", "value": 58}, {"measurement": "Clinical Success: Treatment Difference", "setting": "[6]", "value": "−10.4", "unit": "%"}, {"measurement": "Diarrhea: Treatment Difference", "setting": "[6]", "value": "−8.1", "unit": "%"}, {"measurement": "No Recurrence of CDI: % of subjects", "setting": "[7]", "value": 91, "unit": "%"}, {"measurement": "No Recurrence of CDI: number of subjects", "setting": "[7]", "value": 61}, {"measurement": "Recurrence of CDI: % of subjects", "setting": "[7]", "value": 9, "unit": "%"}, {"measurement": "Recurrence of CDI: number of subjects", "setting": "[7]", "value": 6}, {"measurement": "Recurrence No: % of subjects", "setting": "[8]", "value": 95, "unit": "%"}, {"measurement": "Recurrence No: number of subjects", "setting": "[8]", "value": 111}, {"measurement": "Recurrence Yes: % of subjects", "setting": "[8]", "value": 5, "unit": "%"}, {"measurement": "Recurrence Yes: number of subjects", "setting": "[8]", "value": 6}, {"measurement": "Diarrhea No: % of subjects", "setting": "[9]", "value": 80, "unit": "%"}, {"measurement": "Diarrhea No: number of subjects", "setting": "[9]", "value": 86}, {"measurement": "Diarrhea Yes: % of subjects", "setting": "[9]", "value": 20, "unit": "%"}, {"measurement": "Diarrhea Yes: number of subjects", "setting": "[9]", "value": 22}, {"measurement": "Fever No: % of subjects", "setting": "[9]", "value": 91, "unit": "%"}, {"measurement": "Fever No: number of subjects", "setting": "[9]", "value": 98}, {"measurement": "Fever Yes: % of subjects", "setting": "[9]", "value": 9, "unit": "%"}, {"measurement": "Fever Yes: number of subjects", "setting": "[9]", "value": 10}, {"measurement": "Severe Abdominal Pain/Discomfort No: % of subjects", "setting": "[9]", "value": 74, "unit": "%"}, {"measurement": "Severe Abdominal Pain/Discomfort No: number of subjects", "setting": "[9]", "value": 80}, {"measurement": "Severe Abdominal Pain/Discomfort Yes: % of subjects", "setting": "[9]", "value": 26, "unit": "%"}, {"measurement": "Severe Abdominal Pain/Discomfort Yes: number of subjects", "setting": "[9]", "value": 28}, {"measurement": "Clinical Success No: % of subjects", "setting": "[10]", "value": 43, "unit": "%"}, {"measurement": "Clinical Success No: number of subjects", "setting": "[10]", "value": 50}, {"measurement": "Clinical Success Yes: % of subjects", "setting": "[10]", "value": 57, "unit": "%"}, {"measurement": "Clinical Success Yes: number of subjects", "setting": "[10]", "value": 67}, {"measurement": "Global Cure of Diarrhea Yes: % of subjects", "setting": "[11]", "value": 71, "unit": "%"}, {"measurement": "Global Cure of Diarrhea Yes: number of subjects", "setting": "[11]", "value": 83}, {"measurement": "Adjusted mean number of unformed stools-ANOVA", "setting": "during the treatment period, Rifaximin N = 117, Vancomycin N = 115", "value": 2.36}, {"measurement": "Diarrhea: % of subjects", "setting": "[12]", "value": 23, "unit": "%"}, {"measurement": "Diarrhea: number of subjects", "setting": "[12]", "value": 16}, {"measurement": "No Diarrhea: % of subjects", "setting": "[12]", "value": 77, "unit": "%"}, {"measurement": "No Diarrhea: number of subjects", "setting": "[12]", "value": 53}, {"measurement": "Diarrhea: Treatment Difference", "setting": "subgroup Age <65, at TOC, Rifaximin vs Vancomycin", "value": "−3.8", "unit": "%"}, {"measurement": "Diarrhea: % of subjects", "setting": "[13]", "value": 15, "unit": "%"}, {"measurement": "Diarrhea: number of subjects", "setting": "[13]", "value": 6}, {"measurement": "No Diarrhea: % of subjects", "setting": "[13]", "value": 85, "unit": "%"}, {"measurement": "No Diarrhea: number of subjects", "setting": "[13]", "value": 33}, {"measurement": "Diarrhea: Treatment Difference", "setting": "subgroup Age >=65, at TOC, Rifaximin vs Vancomycin", "value": 3.0, "unit": "%"}, {"measurement": "Diarrhea: % of subjects", "setting": "[14]", "value": 21, "unit": "%"}, {"measurement": "Diarrhea: number of subjects", "setting": "[14]", "value": 14}, {"measurement": "No Diarrhea: % of subjects", "setting": "[14]", "value": 79, "unit": "%"}, {"measurement": "No Diarrhea: number of subjects", "setting": "[14]", "value": 54}, {"measurement": "Diarrhea: Treatment Difference", "setting": "subgroup Female, at TOC, Rifaximin vs Vancomycin", "value": "−3.4", "unit": "%"}, {"measurement": "Diarrhea: % of subjects", "setting": "[15]", "value": 20, "unit": "%"}, {"measurement": "Diarrhea: number of subjects", "setting": "[15]", "value": 8}, {"measurement": "No Diarrhea: % of subjects", "setting": "[15]", "value": 80, "unit": "%"}, {"measurement": "No Diarrhea: number of subjects", "setting": "[15]", "value": 32}, {"measurement": "Diarrhea: Treatment Difference", "setting": "subgroup Male, at TOC, Rifaximin vs Vancomycin", "value": 1.3, "unit": "%"}]}
